Data reported in US20230012368A1 (Hoffmann-La Roche Inc., priority 2018, published 2023).
Where a name gives a salt, the structure may show the parent alone.

The molecules below were run on Acinetobacter baumannii ATCC 17978 (assay: Antimicrobial susceptibility testing: 90% growth inhibitory concentration (IC90) determination). Details: 90% growth inhibitory concentration; Acinetobacter baumannii ATCC17978; Iso-Sensitest broth, OD 600 nm over 16h; read-out: ATCC17978 IC90.
Format: cell-based
Method in brief: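 Compounds serially twofold diluted (e.g. 50 to 0.097 μM final) in Iso-Sensitest broth, inoculated at ~5×10^(5) CFU/ml, incubated at 35±2° C. OD600 read every 20 minutes over 16h. IC90 taken as concentration inhibiting 90% of growth during logarithmic phase.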

SMILES | IC90
COc1ccc(-c2cnc3c(Nc4ccc(C(=O)NCCCN)c(C(F)F)c4)nccn23)c(F)c1F [Example 165, N-(3-aminopropyl)-4-[[3-(2,3-difluoro-4-methoxy-phenyl)imidazo[1,2-a]pyrazin-8-yl]amino]-2-(difluoromethyl)benzamide; formic acid] | 530 nM
CCc1cc(Nc2nccn3c(-c4ccc(OC(F)F)c(F)c4F)cnc23)ccc1C(=O)NC(CC)CCN (stereo not drawn) [Example 317, N-(1-aminopentan-3-yl)-4-[[3-[4-(difluoromethoxy)-2,3-difluorophenyl]imidazo[1,2-a]pyrazin-8-yl]amino]-2-ethylbenzamide; hydrochloride] | 2500 nM

Same assay, conditions: Acinetobacter baumannii, ATCC17978, 16 h, 90% growth inhibitory concentration; Acinetobacter baumannii ATCC17978; Iso-Sensitest broth, OD 600 nm over 16h; read-out: ATCC17978 IC90

IC90 | SMILES
1200 nM | Cc1cc(Nc2nccn3c(-c4ccc(OC(F)F)cc4)cnc23)ccc1C(=O)N(C)CCN1CCOCC1 [Example 250, 4-[[3-[4-(difluoromethoxy)phenyl]im-idazo[1,2-a]pyrazin-8-yl]amino]-N,2-dimethyl-N-(2-morpholin-4-ylethyl)benzamide]
90 nM | CCc1cc(Nc2nccn3c(-c4ccc(OCC#N)c(F)c4F)cnc23)ccc1C(=O)NCCNC(=O)[C@@H](N)CCN [Example 144, 4-[[3-[4-(cyanomethoxy)-2,3-difluoro-phenyl]imidazo[1,2-a]pyrazin-8-yl]amino]-N-[2-[[(2S)-2,4-diaminobutanoyl]amino]ethyl]-2-ethyl-benzamide formate]
190 nM | CCc1cc(Nc2nccn3c(-c4ccc(Oc5ncccn5)c(F)c4F)cnc23)ccc1C(=O)NCCCCCN [Example 558, N-(5-aminopentyl)-4-((3-(2,3-difluoro-4-(pyrimidin-2-yloxy)phenyl)imidazo[1,2-a]pyrazin-8-yl)amino)-2-ethylbenzamide formate]
720 nM | Cc1cc(Nc2nccn3c(-c4ccc(OC(F)F)cc4)cnc23)ccc1C(=O)NCC1CCN(C)CC1 [Example 198, 4-[[3-[4-(difluoromethoxy)phenyl]im-idazo[1,2-a]pyrazin-8-yl]amino]-2-methyl-N-[(1-methylpiperidin-4-yl)methyl]benzamide]
130 nM | COc1ccc(-c2cnc3c(Nc4ccc(C(=O)NCCN5CCNCC5)c(Cl)c4)nccn23)c(F)c1F [Example 59, 2-chloro-4-[[3-(2,3-difluoro-4-methoxy-phenyl)imidazo[1,2-a]pyrazin-8-yl]amino]-N-(2-piperazin-1-ylethyl)benzamide]
480 nM | CCc1cc(Nc2nccn3c(-c4ccc(OC(F)F)c(F)c4F)cnc23)ccc1C(=O)NCCCN [Example 276, N-(3-aminopropyl)-4-[[3-[4-(difluoromethoxy)-2,3-difluorophenyl]imidazo[1,2-a]pyrazin-8-yl]amino]-2-ethylbenzamide;hydrochloride]
510 nM | COc1ccc(-c2cnc3c(Nc4ccc(C(=O)N(C)CCOn5nnc6cccnc65)c(C)c4)nccn23)cc1F [Example 305, 4-[[3-(3-fluoro-4-methoxyphenyl)imidazo[1,2-a]pyrazin-8-yl]amino]-N,2-dimethyl-N-[2-(triazolo[4,5-b]pyridin-3-yloxy)ethyl]benzamide]
640 nM | CCc1cc(Nc2nccn3c(-c4ccc(Cl)c(F)c4F)cnc23)ccc1C(=O)NCCNC(=O)[C@H](N)CCCNC(=N)N [Example 130, N-[2-[[(2R)-2-amino-5-guanidino-pentanoyl]amino]ethyl]-4-[[3-(4-chloro-2,3-difluoro-phenyl)imidazo[1,2-a]pyrazin-8-yl]amino]-2-ethyl-benzamide formate]
130 nM | CNC(=O)c1ccc(Nc2nccn3c(-c4ccc(OC)c(F)c4)cnc23)cc1Cl [Example 22, 2-chloro-4-((3-(3-fluoro-4-methoxyphenyl)imidazo [1,2-a]pyrazin-8-yl)amino)-N-methylbenzamide]
2000 nM | C/C=C/c1cc(Nc2nccn3c(-c4ccc(OC(F)F)cc4)cnc23)ccc1C(=O)NC [Example 151, (E)-4-((3-(4-(Difluoromethoxy)phenyl)imidazo[1,2-a]pyrazin-8-yl)amino)-N-methyl-2-(prop-1-en-1-yl)benzamide]
